Reference: patent publication US20210378246A1, “COMPOSITIONS COMPRISING HALAUXIFEN AND OTHER HERBICIDES AND METHODS THEREOF” (DOW AGROSCIENCES LLC, priority 2018, published 2021)
Several values for one entry are separate records, joined by “and”; a condition that tells them apart may be missing. Equal values may be shown once.

What was measured:
Assay in all cases: Greenhouse post-emergence weed control, visual score 0-100 percent
Assay type in all cases: in vivo
[1] = tested on: Chenopodium album L. (common lambsquarters, CHEAL)
Source text: (§1) Results in Examples are greenhouse trial results.
(§2) Seeds or nutlets of the desired test plant species were planted in a soil matrix prepared by mixing a loam or sandy loam soil (e.g., 28.6 percent silt, 18.8 percent clay, and 52.6 percent sand, with a pH of about 5.8 and an organic matter content of about 1.8 percent) and calcareous grit in an 80 to 20 ratio. The soil matrix was contained in plastic pots with a volume of 1 quart and a surface area of 83.6 cm2. When required to ensure good germination and healthy plants, a fungicide treatment and/or other chemical or physical treatment was applied. The plants were grown for 8-22 days in a greenhouse with an approximate 14 h photoperiod which was maintained at about 29° C. during the day and 26° C. during the night. Nutrients (Peters Excel® 15-5-15 5-Ca 2-Mg and iron chelate) were applied in the irrigation solution as needed and water was added on a regular basis. Supplemental lighting was provided with overhead metal halide 1000-Watt lamps as necessary. The plants were employed for testing when they reached the first through fourth true leaf stage.
(§3) Treatments comprised of the acid or esters of halauxifen-methyl (methyl 4-amino-3-chloro-6-(4-chloro-2-fluoro-3-methoxyphenyl)picolinate), each formulated as an SC (suspension concentrate), and various herbicidal components alone and in combination. A form of the compound of Formula I were applied on an acid equivalent basis.
(§4) Treatment requirements were calculated based upon the rates being tested, the concentration of active ingredient or acid equivalent in the formulation, and a 12 mL application volume at a rate of 187 L/ha.
(§5) For treatments comprised of formulated and technical compounds, weighed amounts of the technical materials were placed individually in 25 mL glass vials and dissolved in a volume of 97:3 v/v acetone/DMSO to obtain 12× stock solutions, and measured amounts of the formulated compounds were placed individually in 25 mL glass vials and diluted in a volume of 1.5% (v/v) crop oil concentrate or water to obtain 12× stock solutions. […] As required, additional water and/or 97:3 v/v acetone/DMSO was added to individual application solutions so that the final acetone and DMSO concentrations of the application solutions being compared were 8.1% and 0.25%, respectively.
(§6) All stock solutions and applications solutions were visually inspected for compound compatibility prior to application. Spray solutions were applied to the plant material with an overhead Mandel track sprayer equipped with an 8002E nozzle calibrated to deliver 187 L/ha over an application area of 0.503 m2 at a spray height of 18 to 20 inches (46 to 50 cm) above average plant canopy height. Control plants were sprayed in the same manner with the solvent blank.
The treated plants and control plants were placed in a greenhouse as described above and watered by sub-irrigation to prevent wash-off of the test compounds. […], the condition of the test plants as compared with that of the untreated plants was determined visually and scored on a scale of 0 to 100 percent where 0 corresponds to no injury or growth inhibition and 100 corresponds to complete kill.

[2] = tested on: Abutilon theophrasti Medik. (velvetleaf, ABUTH)
Source text: as §1, §2, §3, §4, §5, §6
(§7) The treated plants and control plants were placed in a greenhouse as described above and watered by sub-irrigation to prevent wash-off of the test compounds. After approximately […], the condition of the test plants as compared with that of the untreated plants was determined visually and scored on a scale of 0 to 100 percent where 0 corresponds to no injury or growth inhibition and 100 corresponds to complete kill.

[3] = tested on: Amaranthus rudis Sauer, (common waterhemp, AMATA); conditions: 7 DAA
Source text: as §1, §2, §3, §4, §5, §6, §7

[4] = tested on: Polygonum convolvulus L. (wild buckwheat, POLCO)
Source text: as §1, §2, §3, §4, §5, §6, §7

[5] = tested on: Sinapis arvensis L. (wild mustard, SINAR)
Source text: as §1, §2, §3, §4, §5, §6, §7

## CCCCCCC(C)OC(=O)COc1nc(F)c(Cl)c(N)c1Cl (stereo not drawn) [Chemical 3, 1-methytheptyl 2-[(4-amino-3,5-dichloro-6-fluoro-2-pyridinyl)oxy]acetate]
[1]; 7 DAA, alone at 8.8 gae/ha
  Chemical 3 Mean % Weed Control: 0%
[1]; 7 DAA, alone at 17.S gae/ha
  Chemical 3 Mean % Weed Control: 0%
[1]; 7 DAA, alone at 17.5 gae/ha
  Chemical 3 Mean % Weed Control: 0%
[1]; 7 DAA, alone at 35 gae/ha
  Chemical 3 Mean % Weed Control: 0%
[1]; 7 DAA, alone at 70 gae/ha
  Chemical 3 Mean % Weed Control: 10%
[1]; 14 DAA, alone at 8.8 gae/ha
  Chemical 3 Mean % Weed Control: 0%
[1]; 14 DAA, alone at 17.5 gae/ha
  Chemical 3 Mean % Weed Control: 10% and 5%
[1]; 14 DAA, alone at 35 gae/ha
  Chemical 3 Mean % Weed Control: 5% and 3.75% and 1.75%
[1]; 14 DAA, alone at 70 gae/ha
  Chemical 3 Mean % Weed Control: 31.25% and 35%
[1]; 17 DAA, alone at 8.8 gae/ha
  Chemical 3 Mean % Weed Control: 0%
[1]; 17 DAA, alone at 17.5 gae/ha
  Chemical 3 Mean % Weed Control: 8.75%
[1]; 17 DAA, alone at 35 gae/ha
  Chemical 3 Mean % Weed Control: 3.75%
[1]; 17 DAA, alone at 70 gae/ha
  Chemical 3 Mean % Weed Control: 38.75%
[2]; 7 DAA, alone at 8.8 gae/ha
  Chemical 3 Mean % Weed Control: 15%
[2]; 7 DAA, alone at 17.5 gae/ha
  Chemical 3 Mean % Weed Control: 28.75%
[2]; 7 DAA, alone at 35 gae/ha
  Chemical 3 Mean % Weed Control: 67.5%
[2]; 7 DAA, alone at 70 gae/ha
  Chemical 3 Mean % Weed Control: 75.5%
[2]; 14 DAA, alone at 8.8 gae/ha
  Chemical 3 Mean % Weed Control: 2.5%
[2]; 14 DAA, alone at 17.5 gae/ha
  Chemical 3 Mean % Weed Control: 20%
[2]; 14 DAA, alone at 35 gae/ha
  Chemical 3 Mean % Weed Control: 67%
[2]; 14 DAA, alone at 70 gae/ha
  Chemical 3 Mean % Weed Control: 70%
[3]; alone at 8.8 gae/ha
  Chemical 3 Mean % Weed Control: 0%
[3]; alone at 17.5 gae/ha
  Chemical 3 Mean % Weed Control: 3.75%
[3]; alone at 35 gae/ha
  Chemical 3 Mean % Weed Control: 3.75%
[4]; 7 DAA, alone at 8.6 gae/ha
  Chemical 3 Mean % Weed Control: 52.5%
[4]; 7 DAA, alone at 8.8 gae/ha
  Chemical 3 Mean % Weed Control: 52.5%
[4]; 7 DAA, alone at 17.5 gae/ha
  Chemical 3 Mean % Weed Control: 47.5%
[4]; 14 DAA, alone at 8.8 gae/ha
  Chemical 3 Mean % Weed Control: 12.5%
[4]; 14 DAA, alone at 17.5 gae/ha
  Chemical 3 Mean % Weed Control: 62.25%
[4]; 21 DAA, alone at 8.8 gae/ha
  Chemical 3 Mean % Weed Control: 0%
[5]; 14 DAA, alone at 35 gae/ha
  Chemical 3 Mean % Weed Control: 63.75%
[5]; 21 DAA, alone at 17.5 gae/ha
  Chemical 3 Mean % Weed Control: 54.25%

## COC(=O)c1nc(-c2ccc(Cl)c(OC)c2F)cc(N)c1Cl [Chemical 1, methyl 4-amino-3-chloro-6-(4-chloro-2-fluoro-3-methoxyphenyl)picolinate]
[1]; 7 DAA, alone at 1 gae/ha
  Chemical 1 Mean % Weed Control: 28.75%
[1]; 7 DAA, alone at 2 gae/ha
  Chemical 1 Mean % Weed Control: 56.25%
[1]; 7 DAA, alone at 4 gae/ha
  Chemical 1 Mean % Weed Control: 56.25%
[1]; 14 DAA, alone at 1 gae/ha
  Chemical 1 Mean % Weed Control: 33.33% and 40%
[1]; 14 DAA, alone at 2 gae/ha
  Chemical 1 Mean % Weed Control: 60%
[1]; 14 DAA, alone at 4 gae/ha
  Chemical 1 Mean % Weed Control: 62.5% and 63.33%
[1]; 17 DAA, alone at 1 gae/ha
  Chemical 1 Mean % Weed Control: 40%
[1]; 17 DAA, alone at 2 gae/ha
  Chemical 1 Mean % Weed Control: 53.75%
[1]; 17 DAA, alone at 4 gae/ha
  Chemical 1 Mean % Weed Control: 62.5%
[2]; 7 DAA, alone at 1 gae/ha
  Chemical 1 Mean % Weed Control: 81.25%
[2]; 7 DAA, alone at 2 gae/ha
  Chemical 1 Mean % Weed Control: 81.25%
[2]; 7 DAA, alone at 4 gae/ha
  Chemical 1 Mean % Weed Control: 84.5%
[2]; 14 DAA, alone at 2 gae/ha
  Chemical 1 Mean % Weed Control: 87.25%
[3]; alone at 2 gae/ha
  Chemical 1 Mean % Weed Control: 70.5%
[3]; alone at 4 gae/ha
  Chemical 1 Mean % Weed Control: 73%
[4]; 7 DAA, alone at 1 gae/ha
  Chemical 1 Mean % Weed Control: 2.5%
[4]; 7 DAA, alone at 2 gae/ha
  Chemical 1 Mean % Weed Control: 11.25%
[4]; 7 DAA, alone at 4 gae/ha
  Chemical 1 Mean % Weed Control: 28.75%
[4]; 14 DAA, alone at 2 gae/ha
  Chemical 1 Mean % Weed Control: 0%
[4]; 14 DAA, alone at 4 gae/ha
  Chemical 1 Mean % Weed Control: 20%
[4]; 21 DAA, alone at 1 gae/ha
  Chemical 1 Mean % Weed Control: 0%
[4]; 21 DAA, alone at 2 gae/ha
  Chemical 1 Mean % Weed Control: 6.25%
[4]; 21 DAA, alone at 4 gae/ha
  Chemical 1 Mean % Weed Control: 17.5%
[5]; 14 DAA, alone at 4 gae/ha
  Chemical 1 Mean % Weed Control: 0%
[5]; 21 DAA, alone at 1 gae/ha
  Chemical 1 Mean % Weed Control: 1.25%
